Measured values: patent publication US20250312416A1, “METHOD AND PHARMACEUTICAL COMPOSITION FOR CARTILAGE REGENERATION” (FAR EASTERN MEMORIAL HOSPITAL, priority 2024, published 2025)
“Also recorded” adds a separate entry of the source.

Key:
[1] = test system: UC-MSCs; experiment: Real-time PCR of chondrogenic genes in UC-MSCs; format: cell-based; settings: day 7 of peptide treatment
Text: (§1) FIG. 13A provides flowchart illustrating the protocol for peptide treatment and sample collection. […] TGF-beta influenced the expression of chondrogenic genes, including ITGB1 and COMP. […] Treatment with CXCL14/CXCL12 peptides increased GAG content during chondrogenesis in the presence of TGF-beta.
(§2) To further validate the role of CXCL14-P and CXCL12-P in regulating chondrogenesis, we compared their effects on another MSC source, umbilical cord-derived mesenchymal stem cells (UC-MSCs). It is important to note that the chondrogenic induction medium contained TGF-β. During chondrogenesis, we observed that the chondrogenic patterns in UC-MSCs were lower than those in ADSCs (FIG. 12). Subsequently, we assessed the chondrogenic potential of UC-MSCs following stimulation with CXCL14-P and CXCL12-P (FIG. 13A). […] Although the expression of chondrogenic genes (FIG. 13B) and GAG content (FIG. 13C) in UC-MSCs was not as pronounced as in ADSCs, the findings confirm that CXCL14-P and CXCL12-P can robustly stimulate chondrogenesis across different MSC sources.

[2] = test system: clinical-grade ADSCs; experiment: Alcian blue staining of chondrogenic pellets (GAG), ADSCs; format: cell-based, human
Method: The chondrogenic differentiation of pellets containing clinical-grade ADSCs was assessed through Alcian blue staining.
The chondrogenic differentiation of pellets containing clinical-grade ADSCs was evaluated using Alcian blue staining.
(§3) Alcian blue staining was used to assess the chondrogenic differentiation of ADSC pellets. […] Treatment with CXCL14-PM1, CXCL14-PM2, CXCL14-PM3, and CXCR4-PM1 was sufficient to enhance the expression of chondrogenic genes in ADSCs. On day 7, real-time PCR was performed to analyze the expression of key chondrogenic markers, including SOX9, COL2A1, COMP, ACAN, ITGB1, CXCL14, and CXCR4, in ADSCs treated with these modified peptides. ADSCs were exposed to distinct peptide modifications derived from CXCL12, CXCL14, and CXCR4 at a concentration of 10 ng for a one-day treatment, after which the medium was replaced with fresh peptide-free medium. At the end of the treatment period, RNA was extracted to evaluate the expression levels of chondrogenesis-related cytokine genes. Gene expression quantification was performed using a LightCycler system (Roche Applied Science), and fold changes were calculated relative to untreated control ADSCs. […] FIG. 16(D) provides a summary of the results for alanine substitution with positively or negatively charged amino acids in CXCL12, CXCL14, and CXCR4 peptides.
To assess differentiation capacity, single-cell suspensions from cultured IPFP-MSCs and ADSCs were cultivated in chondrogenic medium. Alcian Blue staining was performed on day 7 to evaluate chondrogenic differentiation. The chondrogenic differentiation test was measured gene expressions of ACAN, COL2A1, SOX9, COMP, ITGB1, CXCL14 and SOSTDC1.

[3] = test system: clinical-grade ADSCs; experiment: Real-time PCR of chondrogenic genes in ADSCs; format: cell-based, human
Method: Real-time PCR analysis was conducted on day 7 for CXCL12/CXCL14 peptides treated ADSCs, evaluating the expression of COMP, SOX9, COL2A1, ACAN, ITGB1, and SOSTDC1 genes. Cells were harvested, and RNA extraction was performed using a LightCycler® (Roche Applied Science). The fold change in gene expression on the y-axis was calculated relative to the same gene expression in untreated chondrocytes. Statistical analysis was conducted using one-way ANOVA. Significance levels are denoted as follows: * p<0.05, ** p<0.01, *** p<0.001, and **** p<0.0001 for comparisons between PBS treatments and the untreated group.
Real-time PCR analysis was performed on day 7 for ADSCs treated with CXCR4 agonists, assessing the expression of COMP, SOX9, COL2A1, ACAN, ITGB1, CXCL14, and SOSTIC1 genes. Cellular harvest, RNA extraction, and gene expression quantification were conducted using a LightCycler® (Roche Applied Science). The fold change in gene expression on the y-axis was calculated relative to the same gene expression in untreated chondrocytes. Statistical analysis was executed through one-way ANOVA. Significance levels are represented as follows: * p<0.05, ** p<0.01, *** p<0.001, and **** p<0.0001, indicating the significance of comparisons between PBS treatments and the untreated group.
as §3
ADSCs were treated with CXCL14-P, CXCL14-P1, or CXCL14-P2, respectively, at a concentration of 10 ng for 24 hours, after which the medium was replaced with fresh peptide-free medium. On day 7, total RNA was extracted, and real-time PCR analysis was performed to assess the expression levels of key chondrogenic markers, including ACAN, COL2A1, SOX9, and COMP. Gene expression levels were quantified using a LightCycler system (Roche Applied Science), with fold changes calculated relative to untreated control ADSCs. […] Immunofluorescence staining was performed to detect Collagen Type II, SOX9, COMP, and nuclei (Hoechst 33342) in 3D ADSC spheroids (middle panel). […]
Human IPFP-MSCs and ADSCs were expanded in Dulbecco's Modified Eagle's Medium (DMEM, Gibco, cat. no 2145484) with 10% FBS under a 37° C., 5% CO2 atmosphere. MSCs collected and cell extractions were determined gene expression levels of cytokines and chondrogenic markers using a LightCycler® (Roche Applied Science). The fold change in gene expression on the y-axis was calculated based on untreated cell gene expression.

[4] = test system: UC-MSCs; experiment: Alcian blue staining of chondrogenic pellets (GAG), UC-MSCs; format: cell-based; settings: in the presence of TGF-beta
Text: as §1, §2

[5] = test system: ADSCs; experiment: Cellular uptake of fluorescently labeled peptides by fluorescence microscopy; format: cell-based, human
Method: Cell-penetrating properties of CXCL14-P and CXCL12-P peptides in ADSCs were analyzed. ADSCs were incubated with 10 ng of FITC-conjugated peptides at 37° C. for one day, followed by refreshing the chondrogenic medium. Peptide internalization was evaluated through fluorescence microscopy on days 1, 3, and 7.
We further explored whether peptides derived from CXCL14 and CXCL12 have the capacity to induce chondrogenesis in MSCs from different sources. To assess their potential, ADSCs were utilized in the study to evaluate the chondrogenic capacity of CXCL14-P and CXCL12-P on day 7 (FIG. 10A). […] FIG. 11 illustrates the cell-penetrating properties of CXCL14-P and CXCL12-P peptides in ADSCs, analyzed at different time points. ADSCs were incubated with FITC-conjugated peptides for one day, after which the chondrogenic medium was refreshed. […] Collectively, these observations indicate that CXCL14-P and CXCL12-P have the ability to stimulate chondrogenesis and further amplify the effects of TGF-β during the chondrogenic process.

## ITTKSVSRYRGQEH [CXCL14-P]
[1]
  chondrogenic gene expression (COMP, SOX9, COL2A1, ACAN, ITGB1): significantly upregulated
[2]; in the absence of TGF-β
  GAG content (Alcian blue): evident
[2]; in the presence of TGF-beta
  GAG content (Alcian blue): significantly increased
[2]; peptides compared to CXCL14/CXCL12 proteins, listed as CXCL14 peptide
  GAG content (Alcian blue): significantly higher; also recorded: greater ability
[3]; day 7, peptides compared to CXCL12/CXCL14 proteins, listed as CXCL14 peptide
  expression of chondrogenic genes (COMP, SOX9, COL2A1, ACAN, ITGB1, SOSTDC1): significantly upregulated; also recorded: greater ability
[3]; day 7 of treatment with peptide
  expression of chondrogenic genes (COMP, SOX9, COL2A1, ACAN, ITGB1): significantly upregulated
[3]; in the absence of TGF-β
  chondrogenic genes: evident
[3]; in the presence of TGF-β, day 7
  expression of chondrogenic genes ITGB1 and COMP: significantly enhanced
[4]
  GAG content (Alcian blue): increased
[5]; 10 ng FAM-labeled, 24 hours then peptide-free medium, monitored to day 7
  cellular uptake / detectability of peptide: detectable on day 1 but became undetectable by day 7
[5]; 10 ng FITC-conjugated peptide, 37° C. for one day, observed days 1, 3, 7
  peptide internalization (cell penetration): remain detectable up to day 7
